Laboratory results as given in the supplement of paper PMC5844555.

Columns and labels:
Experiment in all cases: 3' UTR reporter interaction score (median-centred robust z-score of log2 firefly/Renilla activity); higher = less repression of the 3' UTR reporter
Conditions in all cases: HEK293T; 48 h
[1] = tested on: MYB
In short: (§1)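 For the interaction score, the firefly/Renilla ratio was log-transformed, expressed as a robust z-score per plate using median and median absolute deviation, and median-centred per miRNA; a more negative score indicates interaction. These scores come from at least two independent screens, averaged. Each screen used HEK293T cells at 10,000/well in 96-well plates, co-transfected with DharmaFECT Duo carrying 100 ng luc2P 3' UTR reporter, 20 ng pRL-TK and 2.5 pmol miRNA mimic, with luciferase read at 48 h.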

[2] = tested on: NOTCH1
In short: as §1

[3] = tested on: HRAS
In short: as §1

[4] = tested on: BRCA2
In short: as §1

[5] = tested on: PHOX2B
In short: as §1

[6] = tested on: MYC
In short: as §1

[7] = tested on: FBXW7
In short: as §1

[8] = tested on: MYT1L
In short: as §1

[9] = tested on: PHF6
In short: as §1

[10] = tested on: MYCN
In short: as §1

[11] = tested on: EZH2
In short: as §1

[12] = tested on: TP53
In short: as §1

[13] = tested on: ZEB2
In short: as §1

[14] = tested on: RB1
In short: as §1

| Sequence | 3' UTR reporter interaction score [1] | 3' UTR reporter interaction score [2] | 3' UTR reporter interaction score [3] | 3' UTR reporter interaction score [4] | 3' UTR reporter interaction score [5] | 3' UTR reporter interaction score [6] | 3' UTR reporter interaction score [7] | 3' UTR reporter interaction score [8] | 3' UTR reporter interaction score [9] | 3' UTR reporter interaction score [10] | 3' UTR reporter interaction score [11] | 3' UTR reporter interaction score [12] | 3' UTR reporter interaction score [13] | 3' UTR reporter interaction score [14] |
| --- | --- | --- | --- | --- | --- | --- | --- | --- | --- | --- | --- | --- | --- | --- |
| AUCGCUGCGGUUGCGAGCGCUGU | 1.13 | -0.324 | -1.73 | -2.3 | 2.38 | 0.0173 | 0.301 | 1.61 | 2.14 | 0.0647 | -1.15 | -0.536 | 0.885 | -0.265 |
| AUCGGGAAUGUCGUGUCCGCC | -0.74 | -0.49 | 0.0629 | 0.225 | 0.773 | -1.57 | 0.361 | -0.0689 | 1.55 | -0.166 | -0.604 | 0.313 | 0.211 | -0.355 |
| AUCGUGCAUCCCUUUAGAGUGUU | 0.132 | -0.525 | -0.945 | 0.348 | -0.0114 | -0.211 | 0.0524 | 0.0982 | 1.97 | 0.792 | 0.461 | -0.928 | -2.08 | 0.943 |
| AUCGUGCAUCCUUUUAGAGUGU | 0.368 | -0.741 | -1.03 | -0.461 | 0.0627 | -0.764 | -0.0607 | -0.261 | 2.24 | 1.14 | 0.0977 | -0.802 | -2.58 | 0.712 |
| AUGACCUAUGAAUUGACAGAC | 1.61 | -0.0227 | 0.425 | -0.0675 | -1.53 | 1.39 | -0.658 | 0.231 | -2.93 | 1.35 | 0.321 | 0.0613 | -6.08 | -3 |
| AUGAUCCAGGAACCUGCCUCU | -0.332 | 0.405 | -0.133 | 0.796 | -1.8 | 0.0276 | 1.33 | -2.69 | -2.82 | 0.642 | 1.23 | -0.239 | -0.647 | -0.262 |
| AUGCACCUGGGCAAGGAUUCUG | 0.3 | 0.738 | 0.134 | 1.42 | -3.43 | 1.46 | -4.97 | 1.1 | -1.61 | -0.703 | 2.23 | -0.0328 | -2.03 | -0.483 |
| AUGGAGAUAGAUAUAGAAAU | -0.0865 | -0.424 | 0.428 | -0.571 | 0.37 | 0.503 | 0.0761 | -1.67 | -0.821 | -0.424 | 1.16 | 0.174 | 1.49 | -0.936 |
| AUGUAUGUGUGCAUGUGCAUG | -0.0409 | -0.54 | 0.472 | -0.994 | -0.089 | -1.3 | 0.682 | -0.904 | -1.08 | 0.324 | 1.67 | 0.0318 | -0.0851 | -1.83 |
| AUUACAUGGCCAAUCUC | 0.0435 | 0.461 | -0.228 | -0.25 | 1.43 | 0.104 | 0.611 | -0.267 | -0.0228 | 0.193 | -0.208 | 0.293 | -0.413 | -1.24 |
| AUUCAUUUGGUAUAAACCGCGAU | -0.684 | 0.53 | 0.347 | -0.573 | -0.197 | 0.404 | -1.6 | -0.154 | 0.306 | 0.523 | -0.0582 | -1.06 | 0.368 | 0.747 |
| AUUCCUAGAAAUUGUUCAUA | 0.61 | 0.632 | -0.0105 | 0.0394 | -0.529 | -0.586 | 0.157 | 1.2 | 0.216 | -0.577 | 0.167 | -0.0494 | -0.418 | -0.707 |
| AUUCUAAUUUCUCCACGUCUUUG | 0.162 | -0.432 | 0.632 | -0.103 | 0.107 | 0.0131 | -0.826 | 0.697 | -1.02 | 0.587 | -4.24 | 0.345 | -0.49 | -2.85 |
| AUUCUGCAUUUUUAGCAAGU | 1.56 | -2.14 | 0.548 | -0.0751 | -0.262 | 1.31 | -2.1 | -2.22 | 0.263 | 1.34 | 0.847 | 0.643 | -0.209 | 0.0642 |
| AUUGACACUUCUGUGAGUAG | 0.756 | -0.955 | -0.309 | 0.358 | -1.35 | -0.339 | -1.37 | 0.508 | -0.709 | 0.177 | -0.495 | 0.785 | -1.2 | 0.465 |
| CAAAAAUCUCAAUUACUUUUGC | -1.38 | -0.966 | -0.151 | -0.215 | 0.42 | 0.393 | 0.748 | 0.42 | -0.915 | 0.123 | 0.0697 | 0.17 | -0.266 | -0.319 |
| CAAAACUGGCAAUUACUUUUGC | -1.52 | 0.158 | 0.367 | -0.307 | -0.532 | -0.183 | -2.13 | -0.395 | -1.26 | -0.107 | 0.755 | 0.751 | 0.0176 | 0.322 |
| CAAAGAAUUCUCCUUUUGGGCUU | 0.952 | 1.33 | 0.0982 | -0.174 | -0.413 | -0.381 | -0.499 | 0.219 | -0.267 | 0.453 | -0.313 | -0.294 | -0.283 | 1.54 |
| CAAAGAGGAAGGUCCCAUUAC | 0.328 | -0.106 | 0.586 | -0.346 | -0.488 | -0.255 | 0.456 | -0.262 | -0.348 | 0.419 | -0.46 | -1.21 | 1.21 | -0.878 |
